In PMC7377239, “Cardiovascular Effects of Polychlorinated Biphenyls and Their Major Metabolites” (Environmental Health Perspectives, 2020):
Where a name gives a salt, the structure may show the parent alone. Read-outs that look alike come from different tables or passages of the source.

Assays:
[1] = tested on: iCell endothelial cells (human iPSC-derived ECs); experiment: Tube formation (tubulogenesis) assay in iCell endothelial cells, 18 h; assay type: cell-based; conditions: Homo sapiens, Endothelial cell, 18 hr; for activity at 0.1 µM: 0.10 µM
How it was run: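 iCell ECs (passages 1–5) seeded 7,500 cells/well on reduced-growth-factor Geltrex in starvation medium, exposed overnight at 37°C to compounds in triplicate concentration–response (0.5% DMSO vehicle). Calcein AM staining, 4× imaging, angiogenesis image analysis; readouts normalized to vehicle, four-parameter logistic fit, POD at 1 SD of vehicle; 100 μM assigned NOAEL if no response.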

HUVECs = experiment: High-content imaging cytotoxicity in HUVECs, 24 h; assay type: cell-based, human; conditions: Homo sapiens, HUVEC, 24 h, HUVEC; for viability at 0.01 µM / activity at 0.01 µM / viability at 0.1 µM / activity at 0.1 µM / viability at 1 µM / activity at 1 µM / viability at 10 µM / activity at 10 µM / viability at 100 µM / activity at 100 µM: 0.00 µM = 100.00; for viability at 0.1 µM / activity at 0.1 µM: 0.10 µM
How it was run: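 Point-of-departure values derive from four-parameter logistic fits of vehicle-normalized imaging phenotypes (Hoechst 33342, MitoTracker Orange, calcein AM). The fits follow 24 h exposure of HUVEC monolayers at 37°C and 5% CO2, with a top tested concentration of 100μM.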

[2] = iPSC-EC tube formation, 0.00 µM control = 100.00, read-out: endo.mtl.18hr
[3] = iPSC-EC tube formation, 0.00 µM control = 100.00, read-out: endo.tlps.18hr
[4] = iPSC-EC tube formation, 0.00 µM control = 100.00, read-out: endo.tta.18hr
[5] = iPSC-EC tube formation, 0.00 µM control = 100.00, read-out: endo.ttl.18hr
[6] = HUVECs, 24 hr, read-out: huvec.cyto.24hr
[7] = HUVECs, 24 hr, read-out: huvec.mito.24hr
[8] = HUVECs, 24 hr, read-out: huvec.mitoint.24hr
[9] = HUVECs, 24 hr, read-out: huvec.nma.24hr
[10] = HUVECs, 24 hrs, read-out: huvec.tc.24hrs

SMILES: O=S(=O)(O)Oc1cccc(-c2ccc(Cl)cc2)c1 [3'-PCB 3 sulfate]
- minimal effective concentration ([1]; endothelial cells (endo), tube formation mtl, read-out: POD endo.mtl.18hr): 0.58 µM
- minimal effective concentration ([1]; endothelial cells (endo), tube formation tlps, read-out: POD endo.tlps.18hr): 38.6 µM
- minimal effective concentration ([1]; endothelial cells (endo), tube formation tta, read-out: POD endo.tta.18hr): 11.6 µM
- minimal effective concentration ([1]; endothelial cells (endo), tube formation ttl, read-out: POD endo.ttl.18hr): 8.75 µM
- minimal effective concentration (HUVECs; cyto, 24 hr, read-out: POD huvec.cyto.24hr): 100 µM
- minimal effective concentration (HUVECs; mito, 24 hr, read-out: POD huvec.mito.24hr): 100 µM
- minimal effective concentration (HUVECs; mitoint, 24 hr, read-out: POD huvec.mitoint.24hr): 100 µM
- minimal effective concentration (HUVECs; nma, 24 hr, read-out: POD huvec.nma.24hr): 100 µM
- minimal effective concentration (HUVECs; tc, 24 hr, read-out: POD huvec.tc.24hr): 100 µM

SMILES: Clc1ccc(-c2ccccc2)cc1 [PCB3]
- activity at 0.01 µM [1, 2]: 114%
- activity at 0.01 µM [1, 3]: 108%
- activity at 0.01 µM [1, 4]: 123%
- activity at 0.01 µM [1, 5]: 120%
- activity at 0.1 µM [1, 2]: 106%
- activity at 0.1 µM [1, 3]: 111%
- activity at 0.1 µM [1, 4]: 102%
- activity at 0.1 µM [1, 5]: 98.7%
- activity at 1 µM [1, 2]: 119%
- activity at 1 µM [1, 3]: 171%
- activity at 1 µM [1, 4]: 126%
- activity at 1 µM [1, 5]: 123%
- activity at 10 µM [1, 2]: 118%
- activity at 10 µM [1, 3]: 103%
- activity at 10 µM [1, 4]: 109%
- activity at 10 µM [1, 5]: 111%
- activity at 100 µM [1, 2]: 107%
- activity at 100 µM [1, 3]: 113%
- activity at 100 µM [1, 4]: 93.3%
- activity at 100 µM [1, 5]: 95.4%
- minimal effective concentration ([1]; iPSC-EC tube formation, top concentration 100.00 µM, read-out: endo.mtl.18hr POD): 100 µM
- minimal effective concentration ([1]; iPSC-EC tube formation, top concentration 100.00 µM, read-out: endo.tlps.18hr POD): 100 µM
- minimal effective concentration ([1]; iPSC-EC tube formation, top concentration 100.00 µM, read-out: endo.tta.18hr POD): 100 µM
- minimal effective concentration ([1]; iPSC-EC tube formation, top concentration 100.00 µM, read-out: endo.ttl.18hr POD): 100 µM
- viability at 0.01 µM (HUVECs; [6]): 83.5%
- activity at 0.01 µM (HUVECs; [7]): 83.3%
- activity at 0.01 µM (HUVECs; [8]): 93.5%
- activity at 0.01 µM (HUVECs; [9]): 94.7%
- viability at 0.1 µM (HUVECs; [6]): 87.1%
- activity at 0.1 µM (HUVECs; [7]): 86.7%
- activity at 0.1 µM (HUVECs; [8]): 118%
- activity at 0.1 µM (HUVECs; [9]): 93%
- viability at 1 µM (HUVECs; [6]): 73.5%
- activity at 1 µM (HUVECs; [7]): 72.5%
- activity at 1 µM (HUVECs; [8]): 97.5%
- activity at 1 µM (HUVECs; [9]): 93.1%
- viability at 10 µM (HUVECs; [6]): 87.9%
- activity at 10 µM (HUVECs; [7]): 85.4%
- activity at 10 µM (HUVECs; [8]): 76%
- activity at 10 µM (HUVECs; [9]): 85.2%
- viability at 100 µM (HUVECs; [6]): 56%
- activity at 100 µM (HUVECs; [7]): 44.6%
- activity at 100 µM (HUVECs; [8]): 51%
- activity at 100 µM (HUVECs; [9]): 71%
- minimal effective concentration (HUVECs; HUVECs, 24 hr, top concentration 100.00 µM, read-out: huvec.cyto.24hr POD): 100 µM
- minimal effective concentration (HUVECs; HUVECs, 24 hr, top concentration 100.00 µM, read-out: huvec.mito.24hr POD): 100 µM
- minimal effective concentration (HUVECs; HUVECs, 24 hr, top concentration 100.00 µM, read-out: huvec.mitoint.24hr POD): 100 µM
- minimal effective concentration (HUVECs; HUVECs, 24 hr, top concentration 100.00 µM, read-out: huvec.nma.24hr POD): 100 µM
- viability at 0.01 µM (HUVECs; [10]): 83.5%
- viability at 0.1 µM (HUVECs; [10]): 87.1%
- viability at 1 µM (HUVECs; [10]): 73.7%
- viability at 10 µM (HUVECs; [10]): 88%
- viability at 100 µM (HUVECs; [10]): 56.1%
- minimal effective concentration (HUVECs; HUVECs, 24 hrs, top concentration 100.00 µM, read-out: huvec.tc.24hrs POD): 100 µM
